Assay [1] has as its system human colon adenocarcinoma sections. As to the kind of experiment: Binding of fluorescently labeled F. nucleatum to human colon tissue sections / TMA. Conditions: 300 mM GalNAc. On the procedure:
Tissue Microarray Analysis—Colon cancer tissue array CO2601 (US Biomax) and array CO809a (US Biomax) were used in these studies. Details about the cases for each core on the array are available on the US Biomax Web site.
Immunofluorescence and Section Preparation—Fixed tissue sections were stained with H&E or processed for immunofluorescence microscopy. Sections were blocked and incubated with fluorescent PNA or fluorescent bacteria and imaging analysis are as described in Abed et al. 2016. ibid, Supplemental Experimental Procedures. GalNAc removal was performed by incubating sections with O-glycanase.; see Supplemental Experimental Procedures for experimental details.

The subject of assay [2] is erythrocytes. As to the kind of experiment: Hemagglutination assay. Format: cell-based. The note with it: bacteria preincubated with 25 mM GalNAc. On the procedure: Hemagglutination Assays—Hemagglutination assays were performed as previously described (Coppenhagen-Glazer et al., 2015, ibid). For inhibition assays, washed bacteria were preincubated with 25 mM GalNAc (Sigma-Aldrich) for 30 min prior to incubation with erythrocytes.

The test system of assay [3] is high and intermediate Gal-GalNAc-expressing CRC cell lines (HCT116, CT26, RKO). As to the kind of experiment: Flow cytometry attachment and GalNAc competition assays, high and intermediate Gal-GalNAc-expressing lines. Format: cell-based, human and mouse. The note with it: p=0.04167. On the procedure: Flow Cytometry and Competition Assays—FITC-labeled F. nucleatum were incubated with cells at a MOI of 10 for 30 min at room temperature. FITC-labeled PNA lectin (Sigma-Aldrich) was incubated at a final concentration of 140 nM per 2.5×10^5 cells. For competition experiments, bacteria or PNA was incubated with GalNAc (concentration range 0, 50, 100, and 300 mM) for 30 min prior to incubation with cells. Flow cytometry methods and analysis are as described in Abed et al. 2016. ibid, Supplemental Experimental Procedures.
For orientation: Flow cytometry measures light scatter and fluorescence of single cells or particles in a stream.

As to `CC(=O)N[C@H]1C(O)O[C@H](CO)[C@H](O)[C@@H]1O` (stereo partly shown) [GalNAc], in assay [1], the “inhibition of binding of F. nucleatum ATCC 23726 to human CRC tissue sections” value is on record as “inhibits binding”. Further, the “inhibition of CTI-2 hemagglutination” value in assay [2] was “inhibited”. Further, the “inhibition of F. nucleatum ATCC 23726 binding to cells” value in assay [3] (GalNAc 0, 50, 100, 300 mM) is given as “inhibited by GalNAc in a statistically significant, dose-dependent manner”. For the same molecule, the “inhibition of CTI-2 binding to cells” value in assay [3] (soluble GalNAc 0-300 mM) is given as “inhibited by the addition of soluble GalNAc in a dose-dependent manner”.

(Values after US20180028601A1, “METHODS AND COMPOSITIONS FOR TREATING CANCER” (Yissum Research Development Company of The Hebrew …, priority 2016, published 2018).)
